The text below walks through data of patent publication US10682371B2, “Small molecule conjugates specifically activated in tumor microenvironment for targeting and use thereof” (priority 2014, dated 2020).

The test system of one assay is tumor CD8+ T cells. It is filed as in vivo, C57 mice. The procedure, abridged: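 Tumour tissue homogenised and single cells filtered, washed, then stained 1 h at ambient temperature with CD45-PE and CD8-FITC antibodies. After washes in PBS with 1% FBS, flow cytometry gave the fraction of CD8⁺ cells among CD45⁺ leucocytes.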
Assay [1] relates to Human pancreatic cancer Panc-1 tumor tissue homogenate. The class given is biochemical. Conditions: for Activation ratio (%) in homogenates from different tumor tissues: Human pancreatic cancer Panc-1. The protocol: (§1) At 37 °C, sample compounds were added into 100 μg acidized tumor tissue homogenates (pH6.0) in a concentration of 1 mg/ml.
(§2) […], sample compounds were added into 100 μg acidized tumor tissue homogenates (pH6.0) in a concentration of 1 mg/ml.
(§3) At 37 °C, sample compounds were added into 100 μg acidized tumor tissue homogenates in a concentration of 1 mg/ml.
(§4) In the experiments, at 37 °C, compounds were added into proteases in 100 μg acidized tumor tissue homogenates in a concentration of 1 mg/ml. […] Meanwhile certain compounds produced in the screening were compared and their activation efficiency in same tissue was analyzed.
(§5) At 37° C., compounds were added into proteases in 100 μg acidized tumor tissue homogenates in a concentration of 1 mg/ml.

In assay [2] the test system is Human renal cancer OS-RC-2 tumor tissue homogenate. The class given is biochemical. Conditions: for Activation ratio (%) in homogenates from different tumor tissues: Human renal cancer OS-RC-2. On the procedure:
as §1, §2, §3, §4, §5

Assay [3] has as its system Human liver cancer Hepg2 tumor tissue homogenate. It is filed as biochemical. Conditions: for Activation ratio (%) in homogenates from different tumor tissues: Human liver cancer Hepg2. The protocol: as §1, §2, §3, §4, §5
Assay [4] relates to Human colon cancer HT-29 tumor tissue homogenate. It is filed as biochemical. The following applies: Human colon cancer HT-29. The protocol:
as §1, §2, §3, §4, §5

Assay [5] deals with Human non-small cell lung cancer A549 tumor tissue homogenate. The class given is biochemical. The following applies: for Activation ratio (%) in homogenates from different tumor tissues: Human non-small cell lung cancer A549. The protocol: as §1, §2, §3, §4, §5
Assay [6] has as its system Human chronic leukemia K562 tumor tissue homogenate. The class given is biochemical. The following applies: for Activation ratio (%) in homogenates from different tumor tissues: Human chronic leukemia K562. On the procedure:
as §1, §2, §3, §4, §5

Assay [7] concerns Human prostate cancer PC-3 tumor tissue homogenate. The class given is biochemical. Conditions: for Activation ratio (%) in homogenates from different tumor tissues: Human prostate cancer PC-3. On the procedure: as §1, §2, §3, §4, §5
Assay [8] concerns Human ovarian cancer SK-OV-3 tumor tissue homogenate. It is filed as biochemical. The following applies: for Activation ratio (%) in homogenates from different tumor tissues: Human ovarian cancer SK-OV-3. On the procedure: as §1, §2, §3, §4, §5
A further assay relates to D121 lung tumor cells. The class given is in vivo, C57 mice. Conditions: for Treatment effects on C57 mice, in words: compared to the control group and the other treatment groups. The essentials: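 Endpoint is tumor inhibition rate from tumor size (mm^3) after weekly drug treatment for 4 weeks, begun once s.c. tumors from 10^6 live D121 cells reached 0.3-0.4 cm. Before challenge, C57 mice received three i.p. doses of 5×10^5 irradiated D121 cells, two weeks apart, or saline.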

For assay [9], the system named is Human breast cancer MDA-MB435 tumor tissue homogenate. The class given is biochemical. Conditions: for Activation ratio (%) in homogenates from different tumor tissues: Human breast cancer MDA-MB435. The protocol: as §1
(§6) At 37 °C, sample compounds were added into 100 μg acidized human breast cancer (MDA-MB435) tumor tissue homogenates (pH6.0) in a concentration of 1 mg/ml.
as §2, §6, §3, §4, §5

The mark [10] stands for this setting: 100 μg acidized homogenate pH6.0, 1 mg/ml, 37°.
Where [11] appears, read: D121 immunized C57 mice, drugs weekly for 4 weeks, Day 18 (Example 23).
Where [12] appears, read: Table 45, 1 mg/ml, acidized homogenate, Docetaxel release by HPLC.
Where [13] appears, read: Table 49, immunized C57 mice, D121, drugs 13.2 μmol/kg, PDL1 antibody 5 μg/kg, weekly for 4 weeks, Day 18.
Where [14] appears, read: ratio of CD8 positive cells in CD45 positive cells of tumor, flow cytometry, drugs 13.2 μmol/kg, PDL1 antibody 5 μg/kg.
Setting [15] is: Day 18, immunized C57 mice, drugs 13.2 μmol/kg, PDL1 antibody 5 μg/kg, weekly for 4 weeks.

Read-outs that look alike come from different tables or passages of the source.

Take `COCCOCCOCCOCCOCCOCCOCCOCCOCCOCCOCCOCC(=O)N[C@H](C)C(=O)N[C@H](C)C(=O)N[C@H](CC(N)=O)C(=O)Nc1ccc(COC(=O)OC(C(=O)OC2C[C@@]3(O)[C@@H](OC(=O)c4ccccc4)[C@H]4[C@](C)(C(=O)[C@H](OC(C)=O)C(=C2C)C3(C)C)[C@@H](O)CC2OC[C@]24OC(C)=O)[C@@H](NC(=O)c2ccccc2)c2ccccc2)cc1` (stereo partly drawn) [S3′]: the “CD8: CD45 (%)” value in the assay on tumor CD8+ T cells (D121 immunized C57 mice (Example 23), CD8 positive cells in CD45 positive cells of tumor) amounted to 16.7%. In addition, the “Activation ratio (%) in homogenates from different tumor tissues” value in [1] (setting [10]) was determined as 91.5%; in assay [2] (setting [10]), 86.4%; in assay [3] (setting [10]), 83.5%; in assay [4] (setting [10]) it was 91.4%; in assay [5] (setting [10]), 81.4%; in assay [6] (setting [10]) it was 70.2%. Moreover, the “Activation ratio (%) in homogenates from different tumor tissues” value in assay [7] (setting [10]) is recorded as 96.3%; in assay [8] (setting [10]), 79.3%; in assay [9] (setting [10]), 90.4%. The “Size of tumor (mm^3) Day 18” value in the assay on D121 lung tumor cells (setting [11]) came to 357.63 ± 194.54 mm^3. For the same molecule, the “inhibitory rate on tumor % Day 18” value with D121 lung tumor cells (setting [11]) is 77.3%. In addition, the “Treatment effects on C57 mice, in words” value with D121 lung tumor cells is listed as “greatly improved”. For the same molecule, the “activation efficiency (%)” value in assay [9] (human breast cancer (MDA-MB435) tumor tissue homogenates pH6.0, 100 μg, 1 mg/ml, control compounds vs S1′-S4′) is listed as 91.5%.

Take `COCCOCC(=O)N[C@H](C)C(=O)N[C@H](C)C(=O)N[C@H](CC(N)=O)C(=O)Nc1ccc(COC(=O)OC(C(=O)OC2C[C@@]3(O)[C@@H](OC(=O)c4ccccc4)[C@H]4[C@](C)(C(=O)[C@H](O)C(=C2C)C3(C)C)[C@@H](O)CC2OC[C@]24OC(C)=O)[C@@H](NC(=O)OC(C)(C)C)c2ccccc2)cc1` (stereo partly drawn) [Compound D1, 2-(2-methoxyethoxy) acetyl-L-Ala-L-Ala-L-Asn-4-amino benzyl-Docetaxel]: the “CD8: CD45 (%)” value in the assay on tumor CD8+ T cells (Table 49, CD8 positive cells in CD45 positive cells of tumor, flow cytometry, drugs 13.2 μmol/kg, PDL1 antibody 5 μg/kg) is recorded as 18.5%. Also, the “Activation ratio (%) in homogenates from different tumor tissues” value in [1] (setting [12]) is 85.32%; in assay [2] (setting [12]) it was 77.76%; in assay [3] (setting [12]) it was 85.77%; in assay [4] (setting [12]) it was 71.46%; in assay [5] (setting [12]), 77.76%; in assay [6] (setting [12]), 68.23%. Besides, the results for the “Activation ratio (%) in homogenates from different tumor tissues” value in assay [7] (setting [12]), in assay [8] (setting [12]) and in assay [9] (setting [12]) were 87.57%, 79.56% and 83.07%, respectively. Besides, in the assay on D121 lung tumor cells (setting [13]), the “Size of tumor (mm^3) Day 18” value was determined as 324.45 mm^3. For the same molecule, the “inhibitory rate on tumor % Day 18” value in the assay on D121 lung tumor cells (setting [13]) amounted to 77.2%. Besides, in the assay with D121 lung tumor cells (combination with PDL1-antibody), the “Effect together with PDL1-antibody in promoting immunization and treatment, in words” value is “excellent synergistic effect”. In addition, the “Treatment effects on C57 mice, in words” value with D121 lung tumor cells is recorded as “greatly improved”.

As for `COCCOCCOCCOCCOCCOCC(=O)N[C@H](C)C(=O)N[C@H](C)C(=O)N[C@H](CC(N)=O)C(=O)Nc1ccc(COC(=O)N2[C@H]3[C@@H]2CN2C4=C(C(=O)C(N)=C(C)C4=O)[C@H](COC(N)=O)[C@]32OC)cc1` [Compound E2], in the assay on tumor CD8+ T cells (setting [14]), the “CD8: CD45 (%)” value was determined as 19.7%. For the same molecule, the “Activation ratio (%) in homogenates from different tumor tissues” value came to 84.6% in [1] (37° C., 1 mg/ml); 94.5% in [2] (37° C., 1 mg/ml); 94.8% in [3] (37° C., 1 mg/ml); 96.1% in assay [4] (37° C., 1 mg/ml); 96.4% in assay [5] (37° C., 1 mg/ml); 86.4% in assay [7] (37° C., 1 mg/ml). The “Activation ratio (%) in homogenates from different tumor tissues” value in assay [8] (37° C., 1 mg/ml) was 97.6%; in [9] (37° C., 1 mg/ml), 90.6%. Moreover, the “Size of tumor (mm^3) Day 18” value in the assay on D121 lung tumor cells (setting [15]) was determined as 331.57 ± 124.45 mm^3. Also, in the assay with D121 lung tumor cells (setting [15]), the “inhibitory rate on tumor % Day 18” value is recorded as 83.87%. In the assay on D121 lung tumor cells, the “Treatment effects on C57 mice, in words” value was “greatly improved”.

For the molecule `COc1cccc2c1C(=O)c1c(O)c3c(c(O)c1C2=O)C[C@@](O)(C(C)=O)C[C@@H]3O[C@H]1C[C@H](NC(=O)OCc2ccc(NC(=O)[C@H](CC(N)=O)NC(=O)[C@H](C)NC(=O)[C@H](C)NC(=O)CCCCCN3C(=O)C=CC3=O)cc2)[C@H](O)[C@H](C)O1` [Compound S5, 4-N—(N—(N—(N-(6-maleimidocaproyl)-L-alanyl)-L-alanyl)-L-asparaginyl)-amino benzyl alcohol-daunorubicin-carbamate], in the assay with tumor CD8+ T cells (D121 immunized C57 mice, 13.2 μmol/kg, ratio of CD8 positive cells in CD45 positive cells of tumor), the “CD8: CD45 (%)” value is reported as 17.4%. Also, the “Activation Efficiencies (%)” value was found to be 97.4% in [1] (Human pancreatic cancer Panc-1 tumor tissue homogenate (30 μg/ml), 1 mg/ml compound); 98.3% in assay [2] (Human renal cancer OS-RC-2 tumor tissue homogenate (30 μg/ml), 1 mg/ml compound); 67.3% in assay [3] (Human liver cancer Hepg2 tumor tissue homogenate (30 μg/ml), 1 mg/ml compound); 96.7% in assay [5] (Human non-small cell lung cancer A549 tumor tissue homogenate (30 μg/ml), 1 mg/ml compound); 73.5% in assay [6] (Human chronic leukemia K562 tumor tissue homogenate (30 μg/ml), 1 mg/ml compound); 97.3% in assay [7] (Human prostate cancer PC-3 tumor tissue homogenate (30 μg/ml), 1 mg/ml compound). Moreover, the “Activation Efficiencies (%)” value came to 97.4% in assay [8] (Human ovarian cancer SK-OV-3 tumor tissue homogenate (30 μg/ml), 1 mg/ml compound) and 96.7% in assay [9] (Human breast cancer MDA-MB435 tumor tissue homogenate (30 μg/ml), 1 mg/ml compound). In the assay with D121 lung tumor cells (D121 immunized C57 mice, 13.2 μmol/kg weekly, PDL1 antibody 5 μg/kg where combined, Day 18), the “Size of tumor (mm^3) Day 18” value came to 379.75 ± 125.64 mm^3. Moreover, the “Treatment effects on C57 mice, in words” value with D121 lung tumor cells was “greatly improved”.

For the molecule `CO[C@@]12[C@H](COC(N)=O)C3=C(C(=O)C(C)=C(N)C3=O)N1C[C@@H]1N[C@@H]12` [mitomycin, reference compound], in the assay with tumor CD8+ T cells (setting [14]), the “CD8: CD45 (%)” value came to 6.7%. In the assay with D121 lung tumor cells (setting [15]), the “Size of tumor (mm^3) Day 18” value came to 1210.28 ± 368.45 mm^3 and the “inhibitory rate on tumor % Day 18” value is given as 28.62%.
